Source: BindingDB's records for doi:10.1016/S0960-894X(96)00249-1 (1996)

Biological target: not listed separately
Assay: Inhibitory activity against gastrin receptor.

IC50 [nM]	Compound
37	CN1C(=O)[C@H](NC(=O)Nc2cccc(CCOC(=O)NCCCNCCSCc3csc(CC(=N)N)n3)c2)N=C(c2ccccc2)c2ccccc21 [(3-{2-[2-(2,2-Diamino-vinyl)-thiazol-4-ylmethylsulfanyl]-ethylamino}-propyl)-carbamic acid 2-{3-[3-((R)-1-methyl-2-oxo-5-phenyl-2,3-dihydro-1H-benzo[e][1,4]diazepin-3-yl)-ureido]-phenyl}-ethyl ester]
17	Cc1cccc(NC(=O)N[C@@H]2N=C(c3ccccc3)c3ccccc3N(CCOC(=O)NCCCC(=O)NCCSCc3csc(CC(=N)N)n3)C2=O)c1 [(3-{2-[2-(2,2-Diamino-vinyl)-thiazol-4-ylmethylsulfanyl]-ethylcarbamoyl}-propyl)-carbamic acid 2-[(R)-2-oxo-5-phenyl-3-(3-m-tolyl-ureido)-2,3-dihydro-benzo[e][1,4]diazepin-1-yl]-ethyl ester]
27	CN1C(=O)[C@H](NC(=O)Nc2cccc(CCOC(=O)NCCC(=O)NCCCOc3cccc(CN4CCCCC4)c3)c2)N=C(c2ccccc2)c2ccccc21 [{2-[3-(3-Piperidin-1-ylmethyl-phenoxy)-propylcarbamoyl]-ethyl}-carbamic acid 2-{3-[3-((R)-1-methyl-2-oxo-5-phenyl-2,3-dihydro-1H-benzo[e][1,4]diazepin-3-yl)-ureido]-phenyl}-ethyl ester]
135	Cc1cccc(NC(=O)N[C@@H]2N=C(c3ccccc3)c3ccccc3N(CCOC(=O)NCCCC(=O)NCCCOc3cccc(CN4CCCCC4)c3)C2=O)c1 [{3-[3-(3-Piperidin-1-ylmethyl-phenoxy)-propylcarbamoyl]-propyl}-carbamic acid 2-[(R)-2-oxo-5-phenyl-3-(3-m-tolyl-ureido)-2,3-dihydro-benzo[e][1,4]diazepin-1-yl]-ethyl ester]

More lines, now with the values behind:

Compound	IC50 [nM]
CN1C(=O)[C@H](NC(=O)Nc2cccc(COC(=O)NCCNC(=O)CC(=O)NCCCOc3cccc(CN4CCCCC4)c3)c2)N=C(c2ccccc2)c2ccccc21 [(2-{2-[3-(3-Piperidin-1-ylmethyl-phenoxy)-propylcarbamoyl]-acetylamino}-ethyl)-carbamic acid 3-[3-((R)-1-methyl-2-oxo-5-phenyl-2,3-dihydro-1H-benzo[e][1,4]diazepin-3-yl)-ureido]-benzyl ester]	19
Cc1cccc(NC(=O)N[C@@H]2N=C(c3cccc(OC(=O)NCCCC(=O)NCCSCc4csc(CC(=N)N)n4)c3)c3ccccc3N(C)C2=O)c1 [(3-{2-[2-(2,2-Diamino-vinyl)-thiazol-4-ylmethylsulfanyl]-ethylcarbamoyl}-propyl)-carbamic acid 3-[(R)-1-methyl-2-oxo-3-(3-m-tolyl-ureido)-2,3-dihydro-1H-benzo[e][1,4]diazepin-5-yl]-phenyl ester]	> 1000
CN1C(=O)[C@H](NC(=O)Nc2cccc(COC(=O)NCCN3CCN(C(=O)CNCCCOc4cccc(CN5CCCCC5)c4)CC3)c2)N=C(c2ccccc2)c2ccccc21 [[2-(4-{2-[3-(3-Piperidin-1-ylmethyl-phenoxy)-propylamino]-acetyl}-piperazin-1-yl)-ethyl]-carbamic acid 3-[3-((R)-1-methyl-2-oxo-5-phenyl-2,3-dihydro-1H-benzo[e][1,4]diazepin-3-yl)-ureido]-benzyl ester]	7
CN1C(=O)[C@H](NC(=O)Nc2cccc(COC(=O)NCCCN3CCN(C(=O)CNCCCOc4cccc(CN5CCCCC5)c4)CC3)c2)N=C(c2ccccc2)c2ccccc21 [[3-(4-{2-[3-(3-Piperidin-1-ylmethyl-phenoxy)-propylamino]-acetyl}-piperazin-1-yl)-propyl]-carbamic acid 3-[3-((R)-1-methyl-2-oxo-5-phenyl-2,3-dihydro-1H-benzo[e][1,4]diazepin-3-yl)-ureido]-benzyl ester]	9
CN1C(=O)[C@H](NC(=O)Nc2cccc(COC(=O)NCCC(=O)NCCCOc3cccc(CN4CCCCC4)c3)c2)N=C(c2ccccc2)c2ccccc21 [{2-[3-(3-Piperidin-1-ylmethyl-phenoxy)-propylcarbamoyl]-ethyl}-carbamic acid 3-[3-((R)-1-methyl-2-oxo-5-phenyl-2,3-dihydro-1H-benzo[e][1,4]diazepin-3-yl)-ureido]-benzyl ester]	36
CN1C(=O)[C@H](NC(=O)Nc2cccc(CCOC(=O)NCCCC(=O)NCCCOc3cccc(CN4CCCCC4)c3)c2)N=C(c2ccccc2)c2ccccc21 [{3-[3-(3-Piperidin-1-ylmethyl-phenoxy)-propylcarbamoyl]-propyl}-carbamic acid 2-{3-[3-((R)-1-methyl-2-oxo-5-phenyl-2,3-dihydro-1H-benzo[e][1,4]diazepin-3-yl)-ureido]-phenyl}-ethyl ester]	23
CN1C(=O)[C@H](NC(=O)Nc2cccc(COC(=O)NCCCC(=O)NCCCOc3cccc(CN4CCCCC4)c3)c2)N=C(c2ccccc2)c2ccccc21 [{3-[3-(3-Piperidin-1-ylmethyl-phenoxy)-propylcarbamoyl]-propyl}-carbamic acid 3-[3-((R)-1-methyl-2-oxo-5-phenyl-2,3-dihydro-1H-benzo[e][1,4]diazepin-3-yl)-ureido]-benzyl ester]	26
Cc1cccc(NC(=O)N[C@@H]2N=C(c3cccc(OC(=O)NCCCC(=O)NCCCOc4cccc(CN5CCCCC5)c4)c3)c3ccccc3N(C)C2=O)c1 [{3-[3-(3-Piperidin-1-ylmethyl-phenoxy)-propylcarbamoyl]-propyl}-carbamic acid 3-[(R)-1-methyl-2-oxo-3-(3-m-tolyl-ureido)-2,3-dihydro-1H-benzo[e][1,4]diazepin-5-yl]-phenyl ester]	220
CN1C(=O)[C@H](NC(=O)Nc2cccc(COC(=O)NCC(=O)NCCCOc3cccc(CN4CCCCC4)c3)c2)N=C(c2ccccc2)c2ccccc21 [{[3-(3-Piperidin-1-ylmethyl-phenoxy)-propylcarbamoyl]-methyl}-carbamic acid 3-[3-((R)-1-methyl-2-oxo-5-phenyl-2,3-dihydro-1H-benzo[e][1,4]diazepin-3-yl)-ureido]-benzyl ester]	11

Biological target: T1, Gastrin/cholecystokinin type B receptor (Homo sapiens, UniProt P32239)
T1 sequence (P32239 whole entry): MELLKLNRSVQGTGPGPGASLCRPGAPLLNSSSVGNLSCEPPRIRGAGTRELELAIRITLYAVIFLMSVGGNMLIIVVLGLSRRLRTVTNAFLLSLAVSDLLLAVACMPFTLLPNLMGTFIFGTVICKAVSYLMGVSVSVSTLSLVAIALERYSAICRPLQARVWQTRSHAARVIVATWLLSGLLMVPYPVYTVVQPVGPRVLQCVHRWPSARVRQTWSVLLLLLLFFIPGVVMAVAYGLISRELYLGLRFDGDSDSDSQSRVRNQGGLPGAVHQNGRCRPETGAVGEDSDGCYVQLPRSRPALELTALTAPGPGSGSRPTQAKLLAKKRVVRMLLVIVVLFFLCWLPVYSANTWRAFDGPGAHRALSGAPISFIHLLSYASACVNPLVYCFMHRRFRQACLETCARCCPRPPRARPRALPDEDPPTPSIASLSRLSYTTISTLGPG
Assay: ChEBML_71518

IC50 [nM]	Compound
4	CN1C(=O)[C@H](NC(=O)Nc2cccc(COC(=O)NCNC(=O)CC(=O)NCCSCc3csc(CC(=N)N)n3)c2)N=C(c2ccccc2)c2ccccc21 [[(2-{2-[2-(2,2-Diamino-vinyl)-thiazol-4-ylmethylsulfanyl]-ethylcarbamoyl}-acetylamino)-methyl]-carbamic acid 3-[3-((R)-1-methyl-2-oxo-5-phenyl-2,3-dihydro-1H-benzo[e][1,4]diazepin-3-yl)-ureido]-benzyl ester]
